Source: the supplement of paper PMC10307832

Columns and labels:
Test in all cases: relative viability (nuclei count vs DMSO), 5 days (fraction); higher = more cells survive
NCI-H1299 = test system: NCI-H1299
Summary of the method: (§1)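 One day after seeding in 1536-well plates, lung cancer cell lines were dosed by pin tool. Dosing was either single-drug or a fixed anchor-drug dose plus five library-drug doses (not always all listed) in √10 steps. After 5 days, nuclei were stained in one fix-and-stain step and counted on 4× images, and relative viability is the nuclei count of treated wells over that of vehicle wells, given as the median of duplicate plates.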

NCI-H596 = test system: NCI-H596
Summary of the method: as §1

NCI-H1734 = test system: NCI-H1734
Summary of the method: as §1

NCI-H2405 = test system: NCI-H2405
Summary of the method: as §1

EBC-1 = test system: EBC-1
Summary of the method: as §1

NCI-H2085 = test system: NCI-H2085
Summary of the method: as §1

CAL-12T = test system: CAL-12T
Summary of the method: as §1

Calu-6 = test system: Calu-6
Summary of the method: as §1

IA-LM = test system: IA-LM
Summary of the method: as §1

HCC-366 = test system: HCC-366
Summary of the method: as §1

NCI-H1703 = test system: NCI-H1703
Summary of the method: as §1

NCI-H1993 = test system: NCI-H1993
Summary of the method: as §1

A549 = test system: A549
Summary of the method: as §1

Compound `COCC1(CO)C(=O)C2CCN1CC2` (stereo unspecified) [PRIMA-1MET] + CC(C)C[C@H](NC(=O)[C@H](Cc1ccccc1)NC(=O)c1cnccn1)B(O)O [Bortezomib] (partner 0.002 µM) has a relative viability (NCI-H1299; first compound 0.2 µM) of 1.06, a relative viability (NCI-H1299; first compound 0.6325 µM) of 1.02 and a relative viability (NCI-H1299; first compound 2 µM) of 0.96. It also gave a relative viability (NCI-H1299; first compound 6.325 µM) of 1.09, a relative viability (NCI-H1299; first compound 20 µM) of 0.996 and a relative viability (NCI-H596; first compound 0.2 µM) of 1.11. It also gave a relative viability (NCI-H596; first compound 0.6325 µM) of 0.93, a relative viability (NCI-H596; first compound 2 µM) of 0.803 and a relative viability (NCI-H596; first compound 6.325 µM) of 1.25. The relative viability (NCI-H596; first compound 20 µM) was 0.195, the relative viability (NCI-H1734; first compound 0.2 µM) was 1.16 and the relative viability (NCI-H1734; first compound 0.6325 µM) was 0.75. For the same compound, the relative viability (NCI-H1734; first compound 2 µM) was 0.812, the relative viability (NCI-H1734; first compound 6.325 µM) was 0.967 and the relative viability (NCI-H1734; first compound 20 µM) was 0.224. For the same compound, the relative viability (NCI-H2405; first compound 0.2 µM) was 0.716, the relative viability (NCI-H2405; first compound 0.6325 µM) was 0.786 and the relative viability (NCI-H2405; first compound 6.325 µM) was 0.92. The relative viability (NCI-H2405; first compound 20 µM) was 0.952, the relative viability (EBC-1; first compound 0.2 µM) was 0.581 and the relative viability (EBC-1; first compound 0.6325 µM) was 0.549. The relative viability (EBC-1; first compound 2 µM) was 0.572, the relative viability (EBC-1; first compound 6.325 µM) was 0.544 and the relative viability (EBC-1; first compound 20 µM) was 0.136. For the same compound, the relative viability (NCI-H2085; first compound 0.2 µM) was 1.08, the relative viability (NCI-H2085; first compound 0.6325 µM) was 0.978 and the relative viability (NCI-H2085; first compound 2 µM) was 0.856. It also gave a relative viability (NCI-H2085; first compound 6.325 µM) of 0.609, a relative viability (NCI-H2085; first compound 20 µM) of 0.392 and a relative viability (CAL-12T; first compound 0.2 µM) of 0.862. It also gave a relative viability (CAL-12T; first compound 0.6325 µM) of 0.947, a relative viability (CAL-12T; first compound 2 µM) of 1.15 and a relative viability (CAL-12T; first compound 6.325 µM) of 0.946. For the same compound, the relative viability (CAL-12T; first compound 20 µM) was 0.245, the relative viability (Calu-6; first compound 0.2 µM) was 1.11 and the relative viability (Calu-6; first compound 0.6325 µM) was 0.95. The relative viability (Calu-6; first compound 2 µM) was 1.07, the relative viability (Calu-6; first compound 6.325 µM) was 1.02 and the relative viability (Calu-6; first compound 20 µM) was 0.463. The relative viability (IA-LM; first compound 0.2 µM) was 1.02, the relative viability (IA-LM; first compound 0.6325 µM) was 0.648 and the relative viability (IA-LM; first compound 2 µM) was 0.831. It also gave a relative viability (IA-LM; first compound 6.325 µM) of 0.989, a relative viability (IA-LM; first compound 20 µM) of 0.903 and a relative viability (HCC-366; first compound 0.2 µM) of 1.15. For the same compound, the relative viability (HCC-366; first compound 0.6325 µM) was 0.838, the relative viability (HCC-366; first compound 6.325 µM) was 1.01 and the relative viability (HCC-366; first compound 20 µM) was 0.0138. For the same compound, the relative viability (NCI-H1703; first compound 0.2 µM) was 0.568, the relative viability (NCI-H1703; first compound 0.6325 µM) was 0.369 and the relative viability (NCI-H1703; first compound 2 µM) was 0.311. The relative viability (NCI-H1703; first compound 6.325 µM) was 0.142, the relative viability (NCI-H1703; first compound 20 µM) was 0.049 and the relative viability (NCI-H1993; first compound 0.2 µM) was 1.21. It also gave a relative viability (NCI-H1993; first compound 0.6325 µM) of 1.07, a relative viability (NCI-H1993; first compound 2 µM) of 1.94 and a relative viability (NCI-H1993; first compound 6.325 µM) of 1.02. For the same compound, the relative viability (NCI-H1993; first compound 20 µM) was 1.24.
Work on `COCC1(CO)C(=O)C2CCN1CC2` (stereo unspecified) [PRIMA-1MET] + CS(=O)(=O)CCNCc1ccc(-c2ccc3ncnc(Nc4ccc(OCc5cccc(F)c5)c(Cl)c4)c3c2)o1 [Lapatinib] (partner 2 µM) yielded a relative viability (NCI-H1299; first compound 0.2 µM) of 0.977, a relative viability (NCI-H1299; first compound 0.6325 µM) of 0.996 and a relative viability (NCI-H1299; first compound 2 µM) of 0.969. The relative viability (NCI-H1299; first compound 6.325 µM) was 0.99, the relative viability (NCI-H1299; first compound 20 µM) was 0.947 and the relative viability (NCI-H596; first compound 0.2 µM) was 1.14. It also gave a relative viability (NCI-H596; first compound 0.6325 µM) of 1.01, a relative viability (NCI-H596; first compound 2 µM) of 0.77 and a relative viability (NCI-H596; first compound 6.325 µM) of 1.22. For the same compound, the relative viability (NCI-H596; first compound 20 µM) was 1.02, the relative viability (NCI-H1734; first compound 0.2 µM) was 1.43 and the relative viability (NCI-H1734; first compound 0.6325 µM) was 0.98. The relative viability (NCI-H1734; first compound 2 µM) was 0.857, the relative viability (NCI-H1734; first compound 6.325 µM) was 1.07 and the relative viability (NCI-H1734; first compound 20 µM) was 0.591. The relative viability (NCI-H2405; first compound 0.2 µM) was 0.77, the relative viability (NCI-H2405; first compound 0.6325 µM) was 1.17 and the relative viability (NCI-H2405; first compound 6.325 µM) was 0.85. It also gave a relative viability (NCI-H2405; first compound 20 µM) of 0.0796, a relative viability (EBC-1; first compound 0.2 µM) of 0.22 and a relative viability (EBC-1; first compound 0.6325 µM) of 0.214. For the same compound, the relative viability (EBC-1; first compound 2 µM) was 0.203, the relative viability (EBC-1; first compound 6.325 µM) was 0.216 and the relative viability (EBC-1; first compound 20 µM) was 0.201. The relative viability (A549; first compound 0.2 µM) was 1.07, the relative viability (A549; first compound 0.6325 µM) was 0.977 and the relative viability (A549; first compound 2 µM) was 1.05. It also gave a relative viability (A549; first compound 6.325 µM) of 1.01, a relative viability (A549; first compound 20 µM) of 0.943 and a relative viability (NCI-H2085; first compound 0.2 µM) of 0.814. It also gave a relative viability (NCI-H2085; first compound 0.6325 µM) of 0.591, a relative viability (NCI-H2085; first compound 2 µM) of 0.523 and a relative viability (NCI-H2085; first compound 6.325 µM) of 0.54. The relative viability (NCI-H2085; first compound 20 µM) was 0.493, the relative viability (CAL-12T; first compound 0.2 µM) was 0.704 and the relative viability (CAL-12T; first compound 0.6325 µM) was 0.736. For the same compound, the relative viability (CAL-12T; first compound 2 µM) was 0.571, the relative viability (CAL-12T; first compound 6.325 µM) was 0.677 and the relative viability (CAL-12T; first compound 20 µM) was 0.388. For the same compound, the relative viability (Calu-6; first compound 0.2 µM) was 1.14, the relative viability (Calu-6; first compound 0.6325 µM) was 1.08 and the relative viability (Calu-6; first compound 2 µM) was 1.11. It also gave a relative viability (Calu-6; first compound 6.325 µM) of 1.01, a relative viability (Calu-6; first compound 20 µM) of 0.847 and a relative viability (IA-LM; first compound 0.2 µM) of 0.686. The relative viability (IA-LM; first compound 0.6325 µM) was 0.746, the relative viability (IA-LM; first compound 2 µM) was 0.724 and the relative viability (IA-LM; first compound 6.325 µM) was 0.73. The relative viability (IA-LM; first compound 20 µM) was 0.637, the relative viability (HCC-366; first compound 0.2 µM) was 1.28 and the relative viability (HCC-366; first compound 0.6325 µM) was 0.856. For the same compound, the relative viability (HCC-366; first compound 6.325 µM) was 0.915, the relative viability (HCC-366; first compound 20 µM) was 0.016 and the relative viability (NCI-H1703; first compound 0.2 µM) was 1.25. It also gave a relative viability (NCI-H1703; first compound 0.6325 µM) of 0.834, a relative viability (NCI-H1703; first compound 2 µM) of 1.01 and a relative viability (NCI-H1703; first compound 6.325 µM) of 1.04. For the same compound, the relative viability (NCI-H1703; first compound 20 µM) was 0.145, the relative viability (NCI-H1993; first compound 0.2 µM) was 0.776 and the relative viability (NCI-H1993; first compound 0.6325 µM) was 0.776. It also gave a relative viability (NCI-H1993; first compound 2 µM) of 0.731, a relative viability (NCI-H1993; first compound 6.325 µM) of 0.771 and a relative viability (NCI-H1993; first compound 20 µM) of 0.759.
